US20260265233A1, “BENZOTHIOPHENE DERIVATIVES AS RXFP1 AGONISTS” (BRISTOL-MYERS SQUIBB COMPANY, priority 2021, published 2026)

Target: T1, human RXFP1 (Homo sapiens, UniProt Q9HBX9)
T1 construct: expressed in transfected cells
T1 sequence (Q9HBX9 1-757): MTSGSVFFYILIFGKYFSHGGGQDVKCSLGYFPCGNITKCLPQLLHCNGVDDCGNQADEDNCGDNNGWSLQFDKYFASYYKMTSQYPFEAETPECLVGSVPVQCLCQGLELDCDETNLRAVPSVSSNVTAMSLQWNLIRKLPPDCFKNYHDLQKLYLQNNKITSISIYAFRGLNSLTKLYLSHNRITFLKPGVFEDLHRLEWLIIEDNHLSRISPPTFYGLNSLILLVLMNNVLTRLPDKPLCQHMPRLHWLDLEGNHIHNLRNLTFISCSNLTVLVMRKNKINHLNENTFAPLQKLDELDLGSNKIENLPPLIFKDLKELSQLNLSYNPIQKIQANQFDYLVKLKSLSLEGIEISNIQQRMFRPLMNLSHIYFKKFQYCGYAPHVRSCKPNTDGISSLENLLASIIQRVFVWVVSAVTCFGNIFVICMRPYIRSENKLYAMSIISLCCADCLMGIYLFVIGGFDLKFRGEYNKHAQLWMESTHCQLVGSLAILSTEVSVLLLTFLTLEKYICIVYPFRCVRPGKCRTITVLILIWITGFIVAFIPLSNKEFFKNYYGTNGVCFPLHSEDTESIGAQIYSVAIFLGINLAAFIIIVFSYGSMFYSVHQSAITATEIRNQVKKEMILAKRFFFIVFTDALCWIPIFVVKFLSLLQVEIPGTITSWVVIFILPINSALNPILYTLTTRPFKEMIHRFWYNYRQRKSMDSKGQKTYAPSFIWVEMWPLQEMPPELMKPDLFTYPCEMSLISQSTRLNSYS
Test: hRXFP1 HEK293 cAMP assay (HTRF)
Format: cell-based
Details: HEK293 cells stably expressing human RXFP1; 30 min at rt; intracellular cAMP by HTRF
How it was run: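 HEK293 cells stably expressing human RXFP1 treated 30 min at rt with compound (0.010 nM to 50 μM, 2% DMSO) in HBSS/HEPES buffer with 0.5 mM IBMX. Intracellular cAMP measured by HTRF (665/590 nm ratio) against a cAMP standard curve; potency fitted by 4-parameter logistic.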

Row | Compound | EC50 [µM]
1 | COc1ccc(C(=O)NCCO)cc1C(=O)Nc1c(C(=O)Nc2ccc(F)c(C(F)(F)F)c2)sc2cc(C(F)(F)F)ccc12 [Example 217, N3-(2-((4-fluoro-3-(trifluoromethyl)phenyl)carbamoyl)-6-(trifluoromethyl)benzo[b]thiophen-3-yl)-N1-(2-hydroxyethyl)-4-methoxy-isophthalamide] | 2.29
2 | COc1ccc(C2CCCC(C)(O)C2)cc1C(=O)Nc1c(C(=O)Nc2ccc(F)c(C(F)(F)F)c2)sc2cc(C(F)(F)F)ccc12 (single isomer, unassigned) [Example 34, N-(4-fluoro-3-(trifluoromethyl)phenyl)-3-(5-(3-hydroxy-3-methylcyclohexyl)-2-methoxybenzamido)-6-(trifluoromethyl)benzo[b]thiophene-2-carboxamide] | 0.85
3 | COc1ccc(-c2cc(C(=O)O)ccc2F)cc1C(=O)Nc1c(C(=O)Nc2ccc(F)c(C(F)(F)F)c2)sc2ccc(C(F)(F)F)cc12 [Example 214, 6-fluoro-3′-((2-((4-fluoro-3-(trifluoromethyl)phenyl)carbamoyl)-5-(trifluoromethyl)benzo[b]thiophen-3-yl)carbamoyl)-4′-methoxy-[1,1′-biphenyl]-3-carboxylic acid] | 2.15
4 | COc1ccc(C2CCC(O)CC2)cc1C(=O)Nc1c(C(=O)Nc2ccc(F)c(C(F)(F)F)c2)sc2cc(C(F)(F)F)ccc12 (single isomer, unassigned) [Example 76, N-(4-fluoro-3-(trifluoromethyl)phenyl)-3-(5-(4-hydroxycyclo-hexyl)-2-methoxy-benzamido)-6-(trifluoromethyl) benzo[b] thiophene-2-carboxamide] | 0.498
5 | COc1ccc(C2=NOC3(CCN(C(=O)CO)C3)C2)cc1C(=O)Nc1c(C(=O)Nc2ccc(F)c(C(F)(F)F)c2)sc2cc(C(F)(F)F)ccc12 (centres unmarked) [Example 278, N-[4-fluoro-3-(trifluoromethyl)phenyl]-3-{5-[7-(2-hydroxyacetyl)-1-oxa-2,7-diazaspiro[4.4]non-2-en-3-yl]-2-methoxy-benzamido}-6-(trifluoromethyl)-1-benzothiophene-2-carboxamide] | 0.408
6 | COc1ccc(C(=O)NCCCO)cc1C(=O)Nc1c(C(=O)Nc2ccc(F)c(C(F)(F)F)c2)sc2cc(C(F)(F)F)ccc12 [Example 216, N3-(2-((4-fluoro-3-(trifluoromethyl)phenyl)carbamoyl)-6-(trifluoromethyl)benzo[b]thiophen-3-yl)-N1-(3-hydroxypropyl)-4-methoxy-isophthalamide] | 3.49
7 | CNC(=O)CN1CCCC(c2ccc(OC)c(C(=O)Nc3c(C(=O)Nc4ccc(F)c(C(F)(F)F)c4)sc4cc(C(F)(F)F)ccc34)c2)C1 (centres unmarked) [Example 99, N-(4-fluoro-3-(trifluoromethyl)phenyl)-3-(2-methoxy-5-(1-(2-(methylamino)-2-oxoethyl)piperidin-3-yl)benzamido)-6-(trifluoromethyl) benzo[b] thiophene-2-carboxamide] | 1.37
8 | COc1ccc(-c2cc(C(=O)O)ccc2F)cc1C(=O)Nc1c(C(=O)Nc2ccc(F)c(C(F)(F)F)c2)sc2cc(Cl)ncc12 [Example 201, 3′-((6-chloro-2-((4-fluoro-3-(trifluoromethyl)phenyl)carbamoyl)thieno[3,2-c]pyridin-3-yl)carbamoyl)-6-fluoro-4′-methoxy-[1,1′-biphenyl]-3-carboxylic acid] | 0.32
9 | COc1ccc(-c2cccc(NS(C)(=O)=O)c2)cc1C(=O)Nc1c(C(=O)Nc2ccc(F)c(C(F)(F)F)c2)sc2cc(C(F)(F)F)ccc12 [Example 123, N-(4-fluoro-3-(trifluoromethyl)phenyl)-3-(4-methoxy-3′-(methylsulfon-amido)-[1,1′-biphenyl]-3-carboxamido)-6-(trifluoromethyl) benzo[b] thiophene-2-carboxamide] | 0.236
10 | COc1ccc(C2CCN(C3COC3)C2)cc1C(=O)Nc1c(C(=O)Nc2ccc(F)c(C(F)(F)F)c2)sc2cc(C(F)(F)F)ccc12 (centres unmarked) [Example 142, N-(4-fluoro-3-(trifluoromethyl)phenyl)-3-(2-methoxy-5-(1-(oxetan-3-yl)pyrrolidin-3-yl)benzamido)-6-(trifluoromethyl) benzo[b] thiophene-2-carboxamide] | 0.619
11 | COc1ccc(-n2cc(C(=O)O)cn2)cc1C(=O)Nc1c(C(=O)Nc2ccc(F)c(C(F)(F)F)c2)sc2cc(C(F)(F)F)ccc12 [Example 2, 1-(3-((2-((4-fluoro-3-(trifluoromethyl)phenyl)carbamoyl)-6-(trifluoromethyl)benzo[b]thiophen-3-yl)carbamoyl)-4-methoxyphenyl)-1H-pyrazole-4-carboxylic acid] | 2.01

The remaining lines, values ahead:

Row | EC50 [µM] | Compound
12 | 0.208 | COc1ccc(C2CCN(C(=O)C(C)(C)O)C2)cc1C(=O)Nc1c(C(=O)Nc2ccc(F)c(C(F)(F)F)c2)sc2cc(C(F)(F)F)ccc12 (centres unmarked) [Example 151, N-(4-fluoro-3-(trifluoromethyl)phenyl)-3-(5-(1-(2-hydroxy-2-methylpropanoyl)pyrrolidin-3-yl)-2-methoxy-benzamido)-6-(trifluoromethyl) benzo[b] thiophene-2-carboxamide]
13 | 0.374 | COc1ccc(C(=O)N2CC[C@@H](O)C2)cc1C(=O)Nc1c(C(=O)Nc2ccc(F)c(C(F)(F)F)c2)sc2cc(C(F)(F)F)ccc12 [Example 175, (R)-N-(4-fluoro-3-(trifluoromethyl)phenyl)-3-(5-(3-hydroxy-pyrrolidine-1-carbonyl)-2-methoxy-benzamido)-6-(trifluoromethyl) benzo[b] thiophene-2-carboxamide]
14 | 0.463 | COc1ccc(C2=NOC3CN(C(=O)OC(C)(C)C)CC23)cc1C(=O)Nc1c(C(=O)Nc2ccc(F)c(C(F)(F)F)c2)sc2cc(C(F)(F)F)ccc12 (single isomer, unassigned) [Example 245, tert-butyl 3-(3-((2-((4-fluoro-3-(trifluoromethyl)phenyl)carbamoyl)-6-(trifluoromethyl)benzo[b]thiophen-3-yl)carbamoyl)-4-methoxyphenyl)-3a,4,6,6a-tetrahydro-5H-pyrrolo[3,4-d]isoxazole-5-carboxylate]
15 | 3.13 | COc1ccc(C2=NOC3CC(NC(=O)C(C)(C)O)CC23)cc1C(=O)Nc1c(C(=O)Nc2ccc(F)c(C(F)(F)F)c2)sc2cc(C(F)(F)F)ccc12 (single isomer, unassigned) [Example 267, N-[4-fluoro-3-(trifluoromethyl)phenyl]-3-{5-[5-(2-hydroxy-2-methyl-propanamido)-3aH,4H,5H,6H, 6aH-cyclopenta[d] [1,2]oxazol-3-yl]-2-methoxy-benzamido}-6-(trifluoromethyl)-1-benzothiophene-2-carboxamide]
16 | 0.179 | COc1ccc(C(=O)N2CC(C(C)(C)O)C2)cc1C(=O)Nc1c(C(=O)Nc2ccc(F)c(C(F)(F)F)c2)sc2cc(C(F)(F)F)ccc12 [Example 179, N-(4-fluoro-3-(trifluoromethyl)phenyl)-3-(5-(3-(2-hydroxypropan-2-yl)azetidine-1-carbonyl)-2-methoxy-benzamido)-6-(trifluoromethyl) benzo[b] thiophene-2-carboxamide]
17 | 4.94 | COc1ccc(C2CC2C(C)(C)O)cc1C(=O)Nc1c(C(=O)Nc2ccc(F)c(C(F)(F)F)c2)sc2cc(C(F)(F)F)ccc12 (single isomer, unassigned) [Example 161, N-[4-fluoro-3-(trifluoromethyl)phenyl]-3-{5-[2-(2-hydroxypropan-2-yl)cyclopropyl]-2-methoxy-benzamido}-6-(trifluoromethyl)-1-benzothiophene-2-carboxamide]
18 | 0.723 | COc1ccc(C2=NOC3CC(NC(=O)C(C)(C)O)CC23)cc1C(=O)Nc1c(C(=O)Nc2ccc(F)c(C(F)(F)F)c2)sc2cc(C(F)(F)F)ccc12 (single isomer, unassigned) [Example 262, N-[4-fluoro-3-(trifluoromethyl)phenyl]-3-{5-[5-(2-hydroxy-2-methyl-propanamido)-3aH,4H,5H,6H, 6aH-cyclopenta[d] [1,2]oxazol-3-yl]-2-methoxy-benzamido}-6-(trifluoromethyl)-1-benzothiophene-2-carboxamide]
19 | 0.239 | O=C(Nc1c(C(=O)Nc2ccc(F)c(C(F)(F)F)c2)sc2cc(C(F)(F)F)ccc12)c1cc(C2=NOC3COCC23)ccc1F (centres unmarked) [Example 256, 3-(5-{3aH,4H,6H,6aH-furo[3,4-d][1,2]oxazol-3-yl}-2-fluorobenzamido)-N-[4-fluoro-3-(trifluoromethyl)phenyl]-6-(trifluoromethyl)-1-benzothiophene-2-carboxamide]
20 | 3.33 | COc1ccc(-c2cnn(C)c2C(=O)O)cc1C(=O)Nc1c(C(=O)Nc2ccc(F)c(C(F)(F)F)c2)sc2cc(C(F)(F)F)ccc12 [Example 212, 4-(3-((2-((4-fluoro-3-(trifluoromethyl)phenyl)carbamoyl)-6-(trifluoromethyl)benzo[b]thiophen-3-yl)carbamoyl)-4-methoxyphenyl)-1-methyl-1H-pyrazole-5-carboxylic acid]
